Experimental data reported in US7494998B2, “Benzisoxazole piperazine compounds and methods of use thereof” (Hypnion, Inc., priority 2005, dated 2009).

Key:
male Wistar rats = assay: Sleep-wakefulness monitoring (EEG/EMG, SCORE-2004) in rats after oral treatment at CT-18; format: in vivo, rat; conditions: for MAXIMUM NREM SLEEP CUMULATION 10 mg/kg / LONGEST UNINTERRUPTED SLEEP BOUT 10 mg/kg: 10 mg/kg oral at CT-18; for MAXIMUM NREM SLEEP CUMULATION 30 mg/kg / LONGEST UNINTERRUPTED SLEEP BOUT 30 mg/kg: 30 mg/kg oral at CT-18; for MAXIMUM NREM SLEEP CUMULATION 3 mg/kg / LONGEST UNINTERRUPTED SLEEP BOUT 3 mg/kg: 3 mg/kg oral at CT-18
Description: Sleep-wakefulness, locomotor activity and body temperature are monitored in male Wistar rats treated with a test compound (i.e., benzisoxazole analog) initially at a concentration of 10 mg/kg. Higher and lower doses are assayed for select compounds (e.g., as high as 45 mg/kg, and as low as necessary to establish a no-effect dose). Treatments are administered at CT-18, the peak of the activity dominated period (6 hours after lights-off), and produced soporific (sleep-inducing) effects characterized by increased non-REM sleep time, increased sleep continuity, but without evidence of REM sleep inhibition or rebound insomnia.
Sleep-wakefulness, locomotor activity and body temperature were monitored in vivo with various compounds of the invention. Adult, male Wistar rats (250 g at time of surgery, Charles River Laboratories, Wilmington Mass.) were anesthetized (2% isoflourane in medical grade oxygen) and surgically prepared with a cranial implant to permit chronic electro-encephalogram (EEG) and electromyogram (EMG) recording. Body temperature and locomotor activity were monitored via a miniature transmitter (Mini-Mitter, Bend, Oreg.) surgically placed in the abdomen. The cranial implant consisted of stainless steel screws (two frontal [+3.2 AP from bregma, ±2.0 ML] and two occipital [−6.9 AP, ±5.5 ML]) for EEG recording. Two Teflon®-coated stainless steel wires were positioned under the nuchal trapezoid muscles for EMG recording. All leads were soldered to a miniature connector prior to surgery, and gas sterilized in ethylene oxide. The implant assembly was affixed to the skull with dental acrylic. A minimum of three weeks was allowed for surgical recovery.
Each rat was permanently housed in its own individual recording cage located within separate, ventilated compartments of custom-designed stainless steel cabinets. Each cage was enhanced with a filter-top riser and low-torque swivel-commutator. Food and water were available ad libitum. A 24-hr light-dark cycle (12 hours light, 12 hours dark) was maintained throughout the study. Animals were undisturbed for at least 48 hours before and after treatments.
Sleep and wakefulness were determined using “SCORE-2004™” (Hypnion, Worcester, Mass.)—an internet-based sleep-wake and physiological monitoring system. The system monitored amplified EEG (bandpass 1-30 Hz), integrated EMG (bandpass 10-100 Hz), body temperature and non-specific locomotor activity (LMA) via telemetry, and drinking activity, continuously and simultaneously. Arousal states were classified on-line as non-REM (NREM) sleep, REM sleep, wake, or theta-dominated wake every 10 seconds. Total drinking and locomotor activity counts, and body temperature were quantitiated and recorded each minute, using EEG feature extraction and pattern-matching algorithms. […] The classification algorithm used individually-taught EEG-arousal-state templates, plus EMG criteria to differentiate REM sleep from theta-dominated wakefulness, plus behavior-dependent contextual rules (e.g., if the animal was drinking, it is awake). Drinking and locomotor activity intensity (LMA) were recorded every 10 seconds, while body temperature was recorded each minute. Locomotor activity was detected by a telemetry receiver (Mini-Mitter) beneath the cage. Telemetry measures (LMA and body temperature) were not part of the scoring algorithm; thus, sleep-scoring and telemetry data were independent measures.
Compounds were administered at CT-18, the peak of the activity-dominated period, sufficient time was allowed to view the time course of the treatment effect before lights-on (6 hours post-treatment). Compounds were suspended in sterile 0.25% or 0.5% methylcellulose (1-2 ml/kg). Treatments were administered orally as a bolus.
A parallel group study design was employed. […]

[1] = biological target: T1, human recombinant M1 expressed in CHO cells (Homo sapiens, UniProt P11229); conditions: reference compounds of the M1 assay; read-out: Ki (M1 binding assay, reference compounds); cited from earlier work
T1 construct: expressed in transfected cells; host or cells: CHO cells
T1 sequence (P11229 1-460): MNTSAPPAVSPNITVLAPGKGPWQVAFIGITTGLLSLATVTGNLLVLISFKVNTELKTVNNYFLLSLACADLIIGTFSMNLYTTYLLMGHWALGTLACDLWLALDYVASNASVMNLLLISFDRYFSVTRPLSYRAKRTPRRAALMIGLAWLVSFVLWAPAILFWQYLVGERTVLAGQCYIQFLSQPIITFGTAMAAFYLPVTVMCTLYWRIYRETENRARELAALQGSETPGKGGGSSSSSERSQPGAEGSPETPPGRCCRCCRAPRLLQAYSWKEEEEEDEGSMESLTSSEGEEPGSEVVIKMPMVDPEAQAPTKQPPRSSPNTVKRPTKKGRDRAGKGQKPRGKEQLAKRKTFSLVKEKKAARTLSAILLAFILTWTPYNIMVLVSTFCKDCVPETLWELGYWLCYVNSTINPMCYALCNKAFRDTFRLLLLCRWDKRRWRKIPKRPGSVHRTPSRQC

[2] = cumulative nonREM sleep defined in minutes, in min
[3] = sleep bout length defined in minutes

COc1ccc2onc(N3CCN(CC(C)(C)C(=O)O)CC3)c2c1 [Compound 7]
MAXIMUM NREM SLEEP CUMULATION 10 mg/kg (male Wistar rats; [2]): 6
LONGEST UNINTERRUPTED SLEEP BOUT 10 mg/kg (male Wistar rats; [3]): −2.5

Cc1ccc2onc(N3CCN(CCCC(=O)O)CC3)c2c1 [Compound 13]
MAXIMUM NREM SLEEP CUMULATION 10 mg/kg (male Wistar rats; [2]): 7
LONGEST UNINTERRUPTED SLEEP BOUT 10 mg/kg (male Wistar rats; [3]): −5.6

CC(C)(CN1CCN(c2noc3ccccc23)CC1)C(=O)NS(C)(=O)=O [Compound 3]
MAXIMUM NREM SLEEP CUMULATION 10 mg/kg (male Wistar rats; [2]): 25
LONGEST UNINTERRUPTED SLEEP BOUT 10 mg/kg (male Wistar rats; [3]): 5.2
MAXIMUM NREM SLEEP CUMULATION 30 mg/kg (male Wistar rats; [2]): 27
LONGEST UNINTERRUPTED SLEEP BOUT 30 mg/kg (male Wistar rats; [3]): 12.3

CC(C)(CN1CCN(c2noc3ccccc23)CC1)C(=O)O [Compound 1]
MAXIMUM NREM SLEEP CUMULATION 1 mg/kg (male Wistar rats; 1 mg/kg oral at CT-18, cumulative nonREM sleep defined in minutes, in min): 20
LONGEST UNINTERRUPTED SLEEP BOUT 1 mg/kg (male Wistar rats; 1 mg/kg oral at CT-18, sleep bout length defined in minutes): 6.0
MAXIMUM NREM SLEEP CUMULATION 3 mg/kg (male Wistar rats; [2]): 16
LONGEST UNINTERRUPTED SLEEP BOUT 3 mg/kg (male Wistar rats; [3]): 9.3
MAXIMUM NREM SLEEP CUMULATION 10 mg/kg (male Wistar rats; [2]): 26
LONGEST UNINTERRUPTED SLEEP BOUT 10 mg/kg (male Wistar rats; [3]): 14.4
MAXIMUM NREM SLEEP CUMULATION 30 mg/kg (male Wistar rats; [2]): 50
LONGEST UNINTERRUPTED SLEEP BOUT 30 mg/kg (male Wistar rats; [3]): 16.2

Cc1ccc2onc(N3CCN(CCC(=O)O)CC3)c2c1 [Compound 12]
MAXIMUM NREM SLEEP CUMULATION 10 mg/kg (male Wistar rats; [2]): 16
LONGEST UNINTERRUPTED SLEEP BOUT 10 mg/kg (male Wistar rats; [3]): 7.3

CC(C)(CN1CCN(c2noc3ccc(F)cc23)CC1)C(=O)O [Compound 6]
MAXIMUM NREM SLEEP CUMULATION 10 mg/kg (male Wistar rats; [2]): 18
LONGEST UNINTERRUPTED SLEEP BOUT 10 mg/kg (male Wistar rats; [3]): 9.8
MAXIMUM NREM SLEEP CUMULATION 30 mg/kg (male Wistar rats; [2]): 26
LONGEST UNINTERRUPTED SLEEP BOUT 30 mg/kg (male Wistar rats; [3]): 13.5

Cc1ccc2c(N3CCN(CC(C)(C)C(=O)O)CC3)noc2c1 [Compound 9]
MAXIMUM NREM SLEEP CUMULATION 3 mg/kg (male Wistar rats; [2]): 24
LONGEST UNINTERRUPTED SLEEP BOUT 3 mg/kg (male Wistar rats; [3]): 13.6
MAXIMUM NREM SLEEP CUMULATION 10 mg/kg (male Wistar rats; [2]): 29
LONGEST UNINTERRUPTED SLEEP BOUT 10 mg/kg (male Wistar rats; [3]): 12.9

O=C(O)C1(CN2CCN(c3noc4ccccc34)CC2)CC1 [Compound 5]
MAXIMUM NREM SLEEP CUMULATION 3 mg/kg (male Wistar rats; [2]): 40
LONGEST UNINTERRUPTED SLEEP BOUT 3 mg/kg (male Wistar rats; [3]): 3.0
MAXIMUM NREM SLEEP CUMULATION 10 mg/kg (male Wistar rats; [2]): 37
LONGEST UNINTERRUPTED SLEEP BOUT 10 mg/kg (male Wistar rats; [3]): 5.1
MAXIMUM NREM SLEEP CUMULATION 30 mg/kg (male Wistar rats; [2]): 45
LONGEST UNINTERRUPTED SLEEP BOUT 30 mg/kg (male Wistar rats; [3]): 7.2

O=C(O)CCN1CCN(c2noc3ccccc23)CC1 [Compound 4]
MAXIMUM NREM SLEEP CUMULATION 10 mg/kg (male Wistar rats; [2]): 27
LONGEST UNINTERRUPTED SLEEP BOUT 10 mg/kg (male Wistar rats; [3]): 9.9

O=C(O)CCCN1CCN(c2noc3ccccc23)CC1 [Compound 10]
MAXIMUM NREM SLEEP CUMULATION 10 mg/kg (male Wistar rats; [2]): 22
LONGEST UNINTERRUPTED SLEEP BOUT 10 mg/kg (male Wistar rats; [3]): 10.7
MAXIMUM NREM SLEEP CUMULATION 30 mg/kg (male Wistar rats; [2]): 24
LONGEST UNINTERRUPTED SLEEP BOUT 30 mg/kg (male Wistar rats; [3]): 9.9

C[N+]1(C)CCC(OC(=O)C(c2ccccc2)c2ccccc2)CC1 [4-DAMP methiodide]
Ki [1]: 0.27 nM

Cc1ccc2onc(N3CCN(CC(C)(C)C(=O)O)CC3)c2c1 [Compound 8]
MAXIMUM NREM SLEEP CUMULATION 3 mg/kg (male Wistar rats; [2]): 15
LONGEST UNINTERRUPTED SLEEP BOUT 3 mg/kg (male Wistar rats; [3]): 4.8
MAXIMUM NREM SLEEP CUMULATION 10 mg/kg (male Wistar rats; [2]): 29
LONGEST UNINTERRUPTED SLEEP BOUT 10 mg/kg (male Wistar rats; [3]): 8.6
MAXIMUM NREM SLEEP CUMULATION 30 mg/kg (male Wistar rats; [2]): 37
LONGEST UNINTERRUPTED SLEEP BOUT 30 mg/kg (male Wistar rats; [3]): 14.3
